The text below walks through data of article PMC6066574, “Resistance to the Plant Defensin NaD1 Features Modifications to the Cell Wall and Osmo-Regulation Pathways of Yeast” (Frontiers in Microbiology, 2018).

For assay [1], the system named is NaD1-resistant strains of S. cerevisiae compared to wild type BY4741. The assay is described as follows: Stress spot assay on YPD agar. The assay is classed as cell-based, Saccharomyces cerevisiae. Conditions: for concentration that inhibited NaD1-resistant strains but not the wild type: YPD agar spot assay, Figure 6; for concentration at which sensitivity of the NaD1-resistant strains was observed: YPD agar, fivefold dilution spots, overnight 30°C, Supplementary Figures 3 and 4; for growth of NaD1-resistant strains relative to wild-type: result in words. How it is done:
YPD agar medium (25 mL) was amended to a final concentration of hydrogen peroxide (0.625 mM, 1.25 mM, 2.5 mM, 5 mM), CFW (1 μg/mL, 2.5 μg/mL, 5 μg/mL, 10 μg/mL), NaCl (100 mM, 200 mM, 300 mM), or SDS (12.5 μg/mL, 25 μg/mL, 50 μg/mL, 100 μg/mL) just before each plate was poured. Yeast cultures were grown overnight in 5 mL of YPD before dilution to an OD 600 nm of 0.1. A fivefold dilution series of each culture was spotted onto the plate (4 μL per spot) and incubated overnight at 30°C before being photographed.

Assay [2] deals with S. cerevisiae Caspofungin-R C. The assay is described as follows: Antifungal growth assay, Caspofungin-R C. The assay is classed as cell-based. Conditions: Saccharomyces cerevisiae, Table 1, ½ PDB, 24 h at 30°C, OD600. How it is done: (§1) S. cerevisiae BY4741 was grown overnight at 30°C with agitation in 5 mL of YPD. The overnight culture was then diluted to an OD 600 nm of 0.01 in 50% strength PDB medium (½ PDB) before addition of antifungal molecules. Cultures were initially grown with the antifungal molecules at 0.5x the minimum inhibitory concentration (MIC) or 1x MIC alongside a negative control lacking antifungals. Three independent lines for the test and controls were grown at the same time. The cultures were incubated overnight at 30°C with agitation. […] Sub-culturing was stopped once growth occurred at 32 times the original MIC.
(§2) Cultures that were more tolerant to the antifungal molecule were streaked out for single colonies on non-selective YPD agar. Three colonies were picked from each line, and their resistance was re-tested. The colony with the highest resistance to the antifungal was retained for further experimentation. The MIC of pure strains isolated from each culture was broadly equivalent (Supplementary Figure 1).
(§3) Antifungal assays were performed as described in [Hayes et al. (2013)]. Briefly, cultures were grown overnight (30°C, 250 rpm) in 5 mL YPD and diluted to an OD600 of 0.01 in ½ PDB. […] The final OD600 was measured using a SpectraMAX M5e plate reader (Molecular Devices).

Assay [3] relates to S. cerevisiae BY4741. The assay is described as follows: Serial sub-culturing in the presence of antifungal to develop resistance. It is filed as cell-based, Saccharomyces cerevisiae. Conditions: caspofungin-resistant lines. How it is done: as §1
The test system of assay [4] is S. cerevisiae NaD1-resistant strain A. Nature of the assay: Antifungal growth assay, NaD1-R A. To be noted: Saccharomyces cerevisiae, Table 1, ½ PDB, 24 h at 30°C, OD600, read-out: Caspofungin MIC. It is filed as cell-based. How it is done: as §1, §2, §3
In assay [5] the test system is S. cerevisiae BY4741 wild-type. The assay is described as follows: Antifungal growth assay, wild-type strain. The assay is classed as cell-based. Conditions: Saccharomyces cerevisiae. How it is done: (§4) Antifungal assays were performed as described in [Hayes et al. (2013)]. Briefly, cultures were grown overnight (30°C, 250 rpm) in 5 mL YPD and diluted to an OD600 of 0.01 in ½ PDB. Antifungal molecules were prepared at 10x the assay concentration, and 10 μL was mixed with 90 μL of diluted yeast culture before incubation for 24 h at 30°C. The final OD600 was measured using a SpectraMAX M5e plate reader (Molecular Devices).

The subject of assay [6] is no-treatment control lines of S. cerevisiae. The assay is described as follows: Antifungal growth assay, no-treatment control lines (stated together). Conditions: Saccharomyces cerevisiae, read-out: MIC against no treatment control. The assay is classed as cell-based. How it is done:
as §1, §4

The subject of assay [7] is S. cerevisiae Caspofungin-R A. The assay is described as follows: Antifungal growth assay, Caspofungin-R A. The assay is classed as cell-based. Conditions: Saccharomyces cerevisiae, Table 1, ½ PDB, 24 h at 30°C, OD600. How it is done:
as §1, §2, §3

For assay [8], the system named is NaD1-resistant strains of S. cerevisiae. Nature of the assay: Antifungal growth assay, NaD1-resistant strains (stated together). It is filed as cell-based, Saccharomyces cerevisiae. To be noted: Figure 2B; result in words. How it is done: as §1, §2, §3
For assay [9], the system named is S. cerevisiae NaD1-resistant strain C. Nature of the assay: Antifungal growth assay, NaD1-R C. The assay is classed as cell-based. Conditions: Saccharomyces cerevisiae, Table 1, ½ PDB, 24 h at 30°C, OD600, read-out: Caspofungin MIC. How it is done: as §1, §2, §3
The subject of assay [10] is S. cerevisiae NaD1-resistant strain B. Nature of the assay: Antifungal growth assay, NaD1-R B. The assay is classed as cell-based. To be noted: Saccharomyces cerevisiae, Table 1, ½ PDB, 24 h at 30°C, OD600, read-out: Caspofungin MIC. How it is done:
as §1, §2, §3

Assay [11] relates to S. cerevisiae Caspofungin-R B. The assay is described as follows: Antifungal growth assay, Caspofungin-R B. It is filed as cell-based. Conditions: Saccharomyces cerevisiae, Table 1, ½ PDB, 24 h at 30°C, OD600. How it is done:
as §1, §2, §3

Assay [12] deals with caspofungin-resistant isolates of S. cerevisiae. The assay is described as follows: Antifungal growth assay, caspofungin-resistant isolates (stated together). It is filed as cell-based, Saccharomyces cerevisiae. How it is done: as §1, §2, §3

In brackets after ≈: the same amount, converted by molar mass. Where two headings read alike, the source gives them in different places.

What is called MIC is the lowest concentration that inhibits growth of the organism.

As to `O=S(=O)(O)c1cc(Nc2nc(Nc3ccccc3)nc(N(CCO)CCO)n2)ccc1/C=C/c1ccc(Nc2nc(Nc3ccccc3)nc(N(CCO)CCO)n2)cc1S(=O)(=O)O` [CFW, calcofluor white], in assay [1], the “concentration that inhibited NaD1-resistant strains but not the wild type” value was 10 µg/mL and the “concentration at which sensitivity of the NaD1-resistant strains was observed” value came out at 1 µg/mL.
As for `[Cl-].[Na+]` [NaCl], the “growth of NaD1-resistant strains relative to wild-type” value in assay [1] (200 mM NaCl in YPD agar) is reported as “grew better than wild-type”.
`CCCCCCCCCCCCOS(=O)(=O)[O-].[Na+]` [SDS]: in [1], the “concentration that inhibited NaD1-resistant strains but not the wild type” value amounted to 100 µg/mL and the “concentration at which sensitivity of the NaD1-resistant strains was observed” value turned out to be 12.5 µg/mL.
Consider `CC[C@H](C)C[C@H](C)CCCCCCCCC(=O)N[C@H]1C[C@@H](O)[C@@H](NCCN)NC(=O)[C@@H]2[C@@H](O)CCN2C(=O)[C@H]([C@H](O)CCN)NC(=O)[C@H]([C@H](O)[C@@H](O)c2ccc(O)cc2)NC(=O)[C@@H]2C[C@@H](O)CN2C(=O)[C@H]([C@@H](C)O)NC1=O` [caspofungin], for which the MIC in assay [2] came out at 0.5 µM (≈ 0.547 µg/mL); in assay [4], 0.025 µM (≈ 0.0273 µg/mL); in assay [5] (Table 1, Wild-type, ½ PDB, 24 h at 30°C, OD600, read-out: Caspofungin MIC) it was 0.02 µM (≈ 0.0219 µg/mL); in [5] (initial MIC at the start of sub-culturing, read-out: initial MIC) it was 0.01 µM (≈ 0.0109 µg/mL); in assay [6] it was 0.02 µM (≈ 0.0219 µg/mL); in [7] it was 0.5 µM (≈ 0.547 µg/mL). In addition, the MIC came to 0.025 µM (≈ 0.0273 µg/mL) in assay [9]; 0.025 µM (≈ 0.0273 µg/mL) in [10]; 0.5 µM (≈ 0.547 µg/mL) in assay [11]; 0.5 µM (≈ 0.547 µg/mL) in [12] (Saccharomyces cerevisiae, read-out: MIC against caspofungin-resistant isolates). Further, in [3], the “rounds of sub-culture to achieve growth at concentrations 32-fold higher than the initial MIC” value is listed as 15 rounds. The “sensitivity of NaD1-resistant strains compared with wild type” value in assay [8] is recorded as “as sensitive to caspofungin as the wild-type strain”. Further, the “fold more resistant than no treatment control / wild type (MIC ratio)” value in [12] (caspofungin-resistant isolates versus no treatment control / wild type) is reported as 25 fold.
Regarding `OO` [hydrogen peroxide], the “growth of NaD1-resistant strains relative to wild-type” value in assay [1] (range of hydrogen peroxide concentrations in YPD agar) is reported as “grew the same as the wild-type strain”.
